Structure (SMILES): Nc1cc2c(cc1F)COB2O [C70, 6-amino-5-fluorobenzo[c][1,2]oxaborol-1(3H)-ol]
- melting point: 142 to 145 °C

Structure (SMILES): N#Cc1cccc(Oc2ccc3c(c2)B(O)OC3)c1 [C19, 3-(1-hydroxy-1,3-dihydrobenzo[c][1,2]oxaborol-6-yloxy)benzonitrile]
- melting point: 146 to 149 °C

Structure (SMILES): OB1OCc2ccc(-n3cc(Sc4ccccc4)c4ccccc43)cc21 [C66, 6-(3-(phenylthio)-1H-indol-1-yl)benzo[c][1,2]oxaborol-1(3H)-ol]
- melting point: 159 to 163 °C

Structure (SMILES): O=C(COc1ccc2c(c1)COB2O)N1CCN(c2ncccn2)CC1 [C47, 2-(1-hydroxy-1,3-dihydrobenzo[c][1,2]oxaborol-5-yloxy)-1-(4-(pyrimidin-2-yl)piperazin-1-yl)ethanone]
- melting point: 190 to 195 °C

Structure (SMILES): OB1OCc2ccc(N3CCOCC3)cc21 [C56, 6-morpholinobenzo[c][1,2]oxaborol-1(3H)-ol]
- melting point: 128 to 132 °C

Structure (SMILES): COc1ccc2c(c1)c(Sc1ccccc1)cn2-c1ccc2c(c1)B(O)OC2 [C72, 6-(5-methoxy-3-(phenylthio)-1H-indol-1-yl)benzo[c][1,2]oxaborol-1(3H)-ol]
- melting point: 135 to 141 °C

Structure (SMILES): N#Cc1cccc(COc2ccc3c(c2)COB3O)c1 [C96, 3-((1-hydroxy-1,3-dihydrobenzo[c][1,2]oxaborol-5-yloxy)methyl)benzonitrile]
- melting point: 147 to 150 °C

Structure (SMILES): COc1ccc(Sc2ccc3c(c2)B(O)OC3)cc1 [C32, 6-(4-methoxyphenylthio)benzo[c][1,2]oxaborol-1(3H)-ol]
- melting point: 95 to 100 °C

Structure (SMILES): COc1ccc2c(c1)COB2O [C7, 5-methoxybenzo[c][1,2]oxaborol-1(3H)-ol]
- melting point: 102 to 104 °C

Structure (SMILES): O=S(=O)(c1ccc(Cl)cc1)c1ccc2c(c1)B(O)OC2 [C90, 6-(4-chlorophenylsulfonyl)benzo[c][1,2]oxaborol-1(3H)-ol]
- melting point: 157 to 163 °C

Structure (SMILES): OB1OCc2ccc(-n3ccc4ccccc43)cc21 [C55, 6-(1H-indol-1-yl)benzo[c][1,2]oxaborol-1(3H)-ol]
- melting point: 135 to 140 °C

Structure (SMILES): OB1OCc2ccc(N3CCN(c4ccccn4)CC3)cc21 [C48, 6-(4-(pyridin-2-yl)piperazin-1-yl)benzo[c][1,2]oxaborol-1(3H)-ol]
- melting point: 135 to 138 °C

Structure (SMILES): OB1OCc2ccc(N3CCN(c4ccccc4)CC3)cc21 [C53, 6-(4-phenylpiperazin-1-yl)benzo[c][1,2]oxaborol-1(3H)-ol]
- melting point: 159 to 161 °C

Structure (SMILES): OB1OCc2cccc(F)c21 [C86, 7-fluorobenzo[c][1,2]oxaborol-1(3H)-ol]
- melting point: 120 to 124 °C

Structure (SMILES): OB1OCc2ccc(NCc3ccccc3)cc21 [C77, 6-(benzylamino)benzo[c][1,2]oxaborol-1(3H)-ol]
- melting point: 126 to 133 °C

Structure (SMILES): OB1OCc2ccc(Oc3ccc(C(F)(F)F)cc3)cc21 [C87, 6-(4-(trifluoromethyl)phenoxy)benzo[c][1,2]oxaborol-1(3H)-ol]
- melting point: 98 to 105 °C

Structure (SMILES): O=S(=O)(Nc1ccc2c(c1)B(O)OC2)c1ccccc1 [C62, N-(1-hydroxy-1,3-dihydrobenzo[c][1,2]oxaborol-6-yl)benzenesulfonamide]
- melting point: 175 to 184 °C

Structure (SMILES): OB1OCc2ccc(Sc3ccc(C(F)(F)F)cc3)cc21 [C92, 6-(4-(trifluoromethyl)phenylthio)benzo[c][1,2]oxaborol-1(3H)-ol]
- melting point: 111 to 113 °C

Structure (SMILES): COc1ccc(Oc2ccc3c(c2)B(O)OC3)cc1 [C31, 6-(4-methoxyphenoxy)benzo[c][1,2]oxaborol-1(3H)-ol]
- melting point: 126 to 129 °C

Structure (SMILES): OB1OCc2ccc(Sc3ccc(F)cc3)cc21 [C44, 6-(4-fluorophenylthio)benzo[c][1,2]oxaborol-1(3H)-ol]
- melting point: 135 to 138 °C

Structure (SMILES): OCc1cc2c(cc1Br)COB2O [C59, 5-bromo-6-(hydroxymethyl)benzo[c][1,2]oxaborol-1(3H)-ol]
- melting point: > 257 °C

Structure (SMILES): O=C(COc1ccc2c(c1)COB2O)N1CCCCC1 [C46, 2-(1-hydroxy-1,3-dihydrobenzo[c][1,2]oxaborol-5-yloxy)-1-(piperidin-1-yl)ethanone]
- melting point: 158 to 163 °C

Structure (SMILES): CN(c1ccc2c(c1)COB2O)S(=O)(=O)c1ccccc1 [C30, N-(1-hydroxy-1,3-dihydrobenzo[c][1,2]oxaborol-5-yl)-N-methylbenzenesulfonamide]
- melting point: 85 to 95 °C

Structure (SMILES): COc1ccc(S(=O)(=O)c2ccc3c(c2)B(O)OC3)cc1 [C33, 6-(4-methoxyphenylsulfonyl)benzo[c][1,2]oxaborol-1(3H)-ol]
- melting point: 180 to 192 °C

Structure (SMILES): OB1OCc2ccc(F)cc21 [C13, 6-fluorobenzo[c][1,2]oxaborol-1(3H)-ol]
- melting point: 110 to 117.5 °C

Structure (SMILES): OB1OCc2ccc(Sc3cccs3)cc21 [C43, 6-(thiophen-2-ylthio)benzo[c][1,2]oxaborol-1(3H)-ol]
- melting point: 99 to 104 °C

Structure (SMILES): OB1OCc2ccc(-n3cc(Sc4ccccc4)c4cc(Cl)ccc43)cc21 [C80, 6-(5-chloro-3-(phenylthio)-1H-indol-1-yl)benzo[c][1,2]oxaborol-1(3H)-ol]
- melting point: 145 to 151 °C

Structure (SMILES): COc1ccc2c(c1)c(SCCC#N)cn2-c1ccc2c(c1)B(O)OC2 [C73, 3-(1-(1-hydroxy-1,3-dihydrobenzo[c][1,2]oxaborol-6-yl)-5-methoxy-1H-indol-3-ylthio)propanenitrile]
- melting point: 149 to 154 °C

Structure (SMILES): COc1ccc2c(ccn2-c2ccc3c(c2)B(O)OC3)c1 [C68, 6-(5-methoxy-1H-indol-1-yl)benzo[c][1,2]oxaborol-1(3H)-ol]
- melting point: 120 to 124 °C

Structure (SMILES): OB1OCc2ccc(Sc3ccccc3)cc21 [C28, 6-(phenylthio)benzo[c][1,2]oxaborol-1(3H)-ol]
- melting point: 121 to 124 °C

Structure (SMILES): OB1OCc2ccc(Oc3ccc(OC(F)(F)F)cc3)cc21 [C29, 6-(4-(trifluoromethoxy)phenoxy)benzo[c][1,2]oxaborol-1(3H)-ol]
- melting point: 97 to 101 °C

Structure (SMILES): OCc1cccc2c1B(O)OC2 [C64, 7-(hydroxymethyl)benzo[c][1,2]oxaborol-1(3H)-ol]
- melting point: 241 to 250 °C

Structure (SMILES): OB1OCc2ccc(Oc3ccc(Cl)cc3)cc21 [C20, 6-(4-chlorophenoxy)benzo[c][1,2]oxaborol-1(3H)-ol]
- melting point: 119 to 130 °C

Structure (SMILES): O=C(Nc1ccc2c(c1)B(O)OC2)c1ccccc1 [C52, N-(1-hydroxy-1,3-dihydrobenzo[c][1,2]oxaborol-6-yl)benzamide]
- melting point: 186 to 193 °C

Structure (SMILES): OB1OCc2ccc3ccccc3c21 [C11, naphtho[1,2-c][1,2]oxaborol-1(3H)-ol]
- melting point: 139 to 143 °C

Structure (SMILES): CN(C)c1ccc2c(c1)B(O)OC2 [C51, 6-(dimethylamino)benzo[c][1,2]oxaborol-(3H)-ol]
- melting point: 120 to 123 °C

Structure (SMILES): CCOC(=O)COc1ccc2c(c1)COB2O [C41, Ethyl 2-(1-hydroxy-1,3-dihydrobenzo[c][1,2]oxaborol-5-yloxy)acetate]
- melting point: 134 to 137 °C

Structure (SMILES): Cc1ccc2c(c1)COB2O [C8, 5-methylbenzo[c][1,2]oxaborol-1(3H)-ol]
- melting point: 124 to 128 °C

Structure (SMILES): [O-][S+](c1ccc(Cl)cc1)c1ccc2c(c1)B(O)OC2 (stereo not shown) [C89, 6-(4-chlorophenylsulfinyl)benzo[c][1,2]oxaborol-1(3H)-ol]
- melting point: 154 to 161 °C

Structure (SMILES): O=C(O)COc1ccc2c(c1)COB2O [C42, 2-(1-hydroxy-1,3-dihydrobenzo[c][1,2]oxaborol-5-yloxy)acetic acid]
- melting point: 163 to 166 °C

— patent publication US9566290B2, “Boron-containing small molecules” (Anacor Pharmaceuticals, Inc., priority 2005, dated 2017)
